Experiments:
[1] = time-resolved singlet oxygen luminescence measurements in water and microemulsions; assay type: physicochemical; set-up: Integral: unit not given here; conditions: for production of singlet oxygen following irradiation with electromagnetic radiation: 5 μM in water or microemulsions; for formation of singlet oxygen in the microemulsions used, times higher than in water: microemulsions versus water; for Integral: singlet oxygen luminescence; for Decay period / Formation time / Relative yield with respect to H2O: singlet oxygen; for Relative yield with respect to H2O: ratio of the integrals
Description: The formation of singlet oxygen following irradiation of a photosensitizer-containing microemulsion was determined using time-resolved singlet oxygen luminescence measurements.
For the relevant measurements, 5 μM of the respective photosensitizers used were dissolved in water or in the emulsions E1 to E4.
The time-resolved singlet oxygen luminescence measurements were carried out in accordance with the methods described in S. Y. Egorov et al., 1999.
A tuneable laser system was used to produce the singlet oxygen (model: NT242-SH/SFG, serial number: PGD048) from EKSPLA (Vilnius, […]). A portion of the monochromatic laser beam produced was directed onto a photodiode which acted as a trigger signal for the time-correlated single photon measurement.
The other part of the laser beam was directed onto a 1 cm thick quartz cell (SUPRASIL, Type 101-QS, Hellma GmbH & Co. KG, Mühlheim, DE), in which the solution to be tested had been disposed.
The formation of singlet oxygen was detected by direct detection of the time- and spectrally-resolved singlet oxygen luminescence.
Singlet oxygen luminescence was carried out by means of a nitrogen-cooled photomultiplier (model R5509-42, Hamamatsu Photonics, Hamamatsu, Japan) and a multiscaler (7886S, FAST Corn Tec GmbH, Oberhaching, Germany).
The singlet oxygen luminescence was detected at a wavelength in the range 1200 nm to 1400 nm using interference filters which were disposed in front of the photomultiplier.
The quantum yield was determined in accordance with the method described in Baier J. et al. (“Singlet Oxygen Generation by UVA Light Exposure of Endogenous Photosensitizers”, Biophys. J. 91(4), 2006, pages 1452 to 1459; doi. 10.1529/biophysj.106.082388).
The relative yield of singlet oxygen for each photosensitizer with respect to the quantity of singlet oxygen formed in water was calculated from the ratio of the integrals.

[2] = tested on: Escherichia coli (E. coli; ATCC Number: 25922); assay: phototoxicity measurements (MTT test; colony forming units by Miles and Misra); assay type: cell-based; conditions: for effectiveness against E. coli in a microemulsion compared with water: microemulsion versus water; for reduction in the quantity of E. coli: irradiated
Text: (§1) In order to investigate the phototoxicity of the microemulsions in accordance with the invention, a MTT test was used. Assaying cell vitality using a MTT test is based on the reduction of the yellow, water-soluble dye 3-(4,5-dimethylthiazol-2-yl)-2,5-diphenyltetrazolium bromide (MIT, Sigma-Aldrich Chemie GmbH, Munich, DE) into a blue-violet […] (formazan) which is insoluble in water. MTT is a dye which can pass through membranes, which is metabolized by mitochondrial dehydrogenases in living cells, which in the end leads to the formation of formazan crystals.
(§2) Formazan crystals can no longer pass through the membranes and accumulate in proliferating undamaged cells. After cell lysis and dissolving the crystals, the dye is then quantified by colorimetric measurement at 550 nm in a multi-well spectrophotometer (ELISA reader). The quantity of formazan formed is determined as the optical density (OD). The measured quantity of formazan is directly proportional to the number of proliferating cells, so that this test is suitable for the measurement of the phototoxicity of the microemulsions used. The measured OD can be assigned a cell count by means of a previously determined calibration curve.
(§3) The concentration of the respective photosensitizers TMPyP, SA-PN-01a, SA-PN-02a, SA-PN-24d, FL-AS-H-1a or FL-AS-H-2 in the microemulsions E1 to E4 was 0 μM, 10 μM, 25 μM, 50 μM, 100 μM, 250 μM and 500 μM.
(§4) Furthermore, the respective microemulsions E1 to E4 without photosensitizer were used as a control.
(§5) The phototoxicity measurements were carried out on Escherichia coli (E. coli; ATCC Number: 25922) and Staphylococcus aureus (S. aureus; ATCC Number: 25923), as described by Mosmann (1983). (Mosmann T.: Rapid colorimetric assay for cellular growth and survival: application to proliferation and cytotoxicity assays: J. Immunol. methods. 1983 (65); pages 55-63).
(§6) 25 μL of a suspension of the bacteria used were grown overnight in Müller-Hinton liquid medium (Merck KGaA, Darmstadt, Germany) with an optical density of 0.6 at 600 nm were incubated with 25 μL of the test solution at room temperature for 10 seconds in darkness in a 96-well microtitre plate (Cellstar, Greiner Bio-One, Frickenhausen, Germany).
(§7) Next, the microtitre plate was irradiated for 40 s. For irradiation, the light source Blue V from Waldmann (Villingen-Schwenningen, Germany) was used, which emits light at 380 to 480 nm (emission maximum at approximately 420 nm). The applied power was 20 mW/cm^2.
(§8) For each experiment, three controls were carried out at the same time in order to exclude side effects of the irradiation/photosensitizer (PS) on survival of the bacteria: (i) no PS, only light (=light control), (ii) no light, only PS (=dark control), and (iii) neither light nor PS (=reference control).
(§9) After irradiation had been completed, 75 μL of a 25% by weight SDS solution was added to each well of the microtitre plate and the bacterial cells were lysed overnight at 37° C. in an incubator.
(§10) Finally, the optical density (OD) was determined with the aid of a microtitre plate photometer (model EAR 400 AT, SLT Laborinstruments Austria, Salzburg, AT).
(§11) After lysis of the cells and dissolution of the crystals, the dye could then be quantified in a multi-well spectrophotometer (ELISA-Reader) by colorimetric measurement at 550 nm.
(§12) The determination of the colony forming units was carried out in accordance with the method published by Miles and Misra (Miles, AA; Misra, SS, Irwin, JO (1938 November). “The estimation of the bactericidal power of the blood” The Journal of hygiene 38 (6): 732-49). In this regard, serial dilutions from 10^−2 to 10^−9 of the corresponding bacterial suspension were produced. In each case, 3×20 μL of the corresponding bacterial dilutions were then dropped onto Müller-Hinton plates and incubated at 37° C. for 24 h. Next, the number of surviving colony forming units (CFU) was determined. All of the experiments were carried out three times.

[3] = tested on: Staphylococcus aureus (S. aureus; ATCC Number: 25923); assay: as above; assay type: cell-based; conditions: for effectiveness against S. aureus in a microemulsion compared with water: microemulsion versus water; for reduction in the quantity of S. aureus: irradiated
Text: as §1, §2, §3, §4, §5, §6, §7, §8, §9, §10, §11, §12

[4] = time-resolved singlet oxygen luminescence measurements in gels; assay type: physicochemical; conditions: final concentration 10 μM
[5] = photosensitizer 5 μM in microemulsion E1
[6] = photosensitizer 5 μM in microemulsion E2
[7] = photosensitizer 5 μM in microemulsion E1 (DMS, SDS/1-pentanol (1:2); water)
[8] = photosensitizer 5 μM in microemulsion E2 (DMS, SDS/1,2-pentanediol (1:2); water)
[9] = 10 μM in one of the microemulsions E1 to E4
[10] = in one of the microemulsions E1 to E4, from a concentration of 25 μM
[11] = 10 μM to 100 μM, both in water and in microemulsions E1 to E4, Blue V 40 s, 20 mW/cm^2
[12] = more than 100 μM in water (concentrated aqueous solutions)
[13] = more than 100 μM to 500 μM in microemulsions

Cc1cc2nc3c(=O)[nH]c(=O)nc-3n(CCN)c2cc1C.Cl [FL-AS-H-1a, 10-(2-aminoeth-1-yl)-7,8-dimethyl-[3H,10H]-benzo[g]pteridine-2,4-dione hydrochloride]
production of singlet oxygen following irradiation with electromagnetic radiation [1]: produced singlet oxygen | formation of singlet oxygen in the microemulsions used, times higher than in water [1]: 5 times | Integral ([1]; photosensitizer 5 μM in H2O): 366 | Integral [1, 5]: 1752 | Integral [1, 6]: 1695 | Decay period ([1]; photosensitizer 5 μM in H2O): 3.6 μs | Formation time ([1]; photosensitizer 5 μM in H2O): 3.6 μs | Decay period [1, 5]: 8.6 μs | Formation time [1, 7]: 3.0 μs | Decay period [1, 6]: 6.7 μs | Formation time [1, 8]: 4.0 μs | Relative yield with respect to H2O ([1]; 5 μM in microemulsion E1): 4.79 | Relative yield with respect to H2O ([1]; 5 μM in microemulsion E2): 4.63 | reduction in the quantity of E. coli following irradiation [2, 9]: approximately 2 log10 units | reduction in the quantity of S. aureus following irradiation [3, 9]: approximately 2 log10 units

O=C1C(C[n+]2ccccc2)=Cc2cccc3cccc1c23.[Cl-] [SA-PN-01a]
production of singlet oxygen following irradiation with electromagnetic radiation [1]: produced singlet oxygen | formation of singlet oxygen in the microemulsions used, times higher than in water [1]: 7 times | Integral ([1]; photosensitizer 5 μM in H2O): 571 | Integral [1, 5]: 4413 | Integral [1, 6]: 3933 | Decay period ([1]; photosensitizer 5 μM in H2O): 3.2 μs | Formation time ([1]; photosensitizer 5 μM in H2O): 2.5 μs | Decay period [1, 5]: 9.2 μs | Formation time [1, 7]: 1.0 μs | Decay period [1, 6]: 7.4 μs | Formation time [1, 8]: 1.6 μs | Relative yield with respect to H2O ([1]; 5 μM in microemulsion E1): 7.73 | Relative yield with respect to H2O ([1]; 5 μM in microemulsion E2): 6.89 | reduction in the quantity of E. coli following irradiation [2, 9]: 3 log10 units | reduction in the quantity of E. coli following irradiation [2, 10]: more than 6 log10 units | effectiveness against E. coli in a microemulsion compared with water [2]: more effective | reduction in the quantity of S. aureus following irradiation [3, 9]: 3 log10 units | reduction in the quantity of S. aureus following irradiation [3, 10]: more than 6 log10 units | effectiveness against S. aureus in a microemulsion compared with water [3]: more effective

CN(CC1=Cc2cccc3cccc(c23)C1=O)C(=N)N.Cl [SA-PN-24d, 1-((1-oxo-1H-phenalen-2-yl)methyl)-1-methylguanidinium chloride]
effectiveness against E. coli in a microemulsion compared with water [2]: more effective | effectiveness against S. aureus in a microemulsion compared with water [3]: more effective

C[N+](C)(C)CC1=Cc2cccc3cccc(c23)C1=O.[Cl-] [SA-PN-02a, N,N,N-trimethyl-1-(1-oxo-1H-phenalen-2-yl)methanaminium chloride]
effectiveness against E. coli in a microemulsion compared with water [2]: more effective | effectiveness against S. aureus in a microemulsion compared with water [3]: more effective

C[n+]1ccc(-c2c3nc(c(-c4cc[n+](C)cc4)c4ccc([nH]4)c(-c4cc[n+](C)cc4)c4nc(c(-c5cc[n+](C)cc5)c5ccc2[nH]5)C=C4)C=C3)cc1 [TMPyP, 5,10,15,20-tetrakis(1-methyl-4-pyridyl)-porphyrin-tetra-(p-toluenesulphonate), reference compound]
production of singlet oxygen following irradiation with electromagnetic radiation [1]: produced singlet oxygen | Integral ([1]; photosensitizer 5 μM in H2O): 985 | Integral [1, 5]: 2874 | Integral [1, 6]: 1955 | Decay period ([1]; photosensitizer 5 μM in H2O): 3.8 μs | Formation time ([1]; photosensitizer 5 μM in H2O): 1.9 μs | Decay period [1, 5]: 8.9 μs | Formation time [1, 7]: 1.7 μs | Decay period [1, 6]: 7.2 μs | Formation time [1, 8]: 2.3 μs | Relative yield with respect to H2O ([1]; 5 μM in microemulsion E1): 2.92 | Relative yield with respect to H2O ([1]; 5 μM in microemulsion E2): 1.98 | destruction of E. coli by the singlet oxygen formed by the irradiation [2, 11]: destroyed | reduction in the quantity of E. coli [2, 12]: 2 log units | reduction in the quantity of E. coli [2, 13]: 5 log10 units | destruction of S. aureus by the singlet oxygen formed by the irradiation [3, 11]: destroyed | reduction in the quantity of S. aureus [3, 12]: 2 log units | reduction in the quantity of S. aureus [3, 13]: 5 log10 units | decay time for the singlet oxygen signal (tD) ([4]; in gel G3): 7.4 μs | rise time for the singlet oxygen signal (tR) ([4]; in gel G3): 2.7 μs | formation of singlet oxygen following irradiation ([4]; in gels G1, G2 and G3): could be detected

— patent publication US20190111168A1, “PHOTOSENSITIZER DISPERSION, AND USE THEREOF” (Universität Regensburg, priority 2016, published 2019)
